Reference: patent US10106577B2, “Agonists of neurotrophin receptors and their use as medicaments” (BIONURE FARMA, S.L., priority 2010, dated 2018)

Experiments:
[1] = system: TrkB and p75 on SH-SY5Y cells; test: Cytometry binding assay, competition BDNF/G79-FITC in SH-SY5Y; design: species or system human; conditions: growing concentrations of BDNF
Description: In order to assess the binding of G79 to the TrkA (PC12 cells) and TrkB receptors (SH-SY5Y), we performed competitive binding assays by flow cytometry. In order to assess the binding competition between p75 and TrkA, PC12 cells expressing both TrkA and p75 receptors were cultivated in normal growth medium. After detaching cells by trypsin solution, 200,000 cells/well were added to tubes for the following incubations. One tube contains control untreated cells. In the other tubes, cells were pre-incubated for 45 minutes with different concentrations of NGF (0-10-20-50-100 ng/ml), that can directly bind both TrkA and p75 receptors, blocking the possible binding of G79 if it competes for the same receptors. Then, without washing the cells, G79 conjugated with FITC fluorescence (100 ng/ml) was added and so incubated the cells for 1 hour. Samples were read in a cytometer (FCAScan).
To detect the binding separately on both receptors, a prior incubation of cells (before NGF incubation) with blocking antibodies was made. The cells were preincubated for 1 hour with blocking antibody anti-p75 (1:100; Chemicon Int.), to detect the binding on TrkA, or blocking antibody anti-TrkA (1:200; AbCam) to detect the binding on p75. […] All the results are expressed as mean channel fluorescence (MCF), which is a measure of the cell surface fluorescence produced by G79-FITC binding.

[2] = system: retinal ganglion cells (RGC); test: Glaucoma model, count of retinal ganglion cells; assay type: in vivo, Sprague Dawley rats
Description: 12 Sprague Dawley rats (4 months of age) were anesthetized with […] and subjected to hypertonic saline solution injection into the episcleral vein of the right eye. Intraocular pressure (IOP) was measured before the operation and was monitored one time a week using a TonoLab for 7 weeks. Treatment with G79 was begun one week after glaucoma induction by topical application at the conjunctive. Two different experiments were performed.
In the first experiment, G79 was dissolved into physiological solution and was used at two different concentration (200 μg/ml and 400 μg/ml). NGF was used as positive control (200 μg/ml) and the physiological solution, used to dissolve all the molecules, was subministered as placebo. The animals were divided into 4 groups (3 animals in each group): glaucoma-G79 200 μg/ml; glaucoma-G79 […]; glaucoma-NGF; glaucoma-placebo. The left eye was used as the control without glaucoma. In both experiments, seven weeks after glaucoma induction, animals were sacrificed by overdose of anaesthetic and their eyes were taken and fixed in 4% of PFA. The eyes were included in paraffin and cut into 20 μm sections to be used for histological studies (hematoxilin-eosin staining). The cell count of the number of retinal ganglion cells (RGC) was performed randomly in ten different fields for each eye.
Rats were injected with a hypertonic solution in the eye that induced high intraocular pressure for five weeks. Animals were treated with eye drops of NGF ([…]), G79 ([…]) or placebo every day for five weeks. Animals with glaucoma and treated with placebo (saline) have a significant decrease in the number of retinal ganglion cells compared with control.
In the second experiment, G79 at the concentration of 200 μg/ml was used. The objective of this second experiment was to compare the efficacy of G79 to Timolol, the most common therapy for glaucoma that works by decreasing the intraocular pressure. Also in this experiment, a combination treatment with G79 and Timolol was performed. […]

TrkA = molecular target: T1, TrkA (Rattus norvegicus, UniProt P35739); test: Western blot analysis of receptor phosphorilation in PC12 cells; assay type: cell-based; conditions: G79 100 ng/ml; 5-15-30-60 min
T1 construct: PC12 cells expressing both TrkA and p75 receptors were cultivated in normal growth medium; endogenous in cells; host or cells: PC12
T1 sequence (P35739 33-799): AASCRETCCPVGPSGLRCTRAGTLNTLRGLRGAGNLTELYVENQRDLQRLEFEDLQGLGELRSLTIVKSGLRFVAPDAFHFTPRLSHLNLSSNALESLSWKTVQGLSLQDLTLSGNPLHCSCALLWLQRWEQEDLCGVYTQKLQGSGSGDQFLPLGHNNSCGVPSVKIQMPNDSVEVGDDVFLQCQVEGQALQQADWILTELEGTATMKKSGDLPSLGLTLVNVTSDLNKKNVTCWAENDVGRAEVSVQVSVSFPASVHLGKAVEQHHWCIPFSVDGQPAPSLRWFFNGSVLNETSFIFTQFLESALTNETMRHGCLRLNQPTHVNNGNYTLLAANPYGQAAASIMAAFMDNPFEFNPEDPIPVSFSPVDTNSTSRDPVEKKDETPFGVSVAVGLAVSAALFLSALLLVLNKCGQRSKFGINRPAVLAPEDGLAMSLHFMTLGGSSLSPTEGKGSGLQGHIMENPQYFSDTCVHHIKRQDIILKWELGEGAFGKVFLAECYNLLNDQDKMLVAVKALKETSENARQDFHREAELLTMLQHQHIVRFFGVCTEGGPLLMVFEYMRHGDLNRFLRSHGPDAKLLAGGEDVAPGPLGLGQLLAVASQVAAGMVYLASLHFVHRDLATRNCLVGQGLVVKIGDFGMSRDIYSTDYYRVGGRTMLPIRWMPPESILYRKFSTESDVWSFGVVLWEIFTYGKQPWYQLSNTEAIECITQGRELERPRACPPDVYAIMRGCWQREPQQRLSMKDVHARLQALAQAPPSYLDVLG
Description: (§1) Neurotrophin receptors TrkA and TrkB activation (phosphorilation) was evaluated by Western-blot as follows: PC12 cell growing on 24-well plates were treated with low serum medium (0.5% FBS) to reduce the basal level of phosphorilation. After 24 h, the PC12 cells were treated with G79 (100 ng/ml), then recovered and lysated in 300 μl of ice-cold lysis buffer (Sigma Aldrich) at 5-15-30-60 min. After sonication, cell debris were removed by centrifugation (14000 rpm for 10 min) and equal amount of supernatant (30-35 μg/well) were loaded and separated by 10% polyacrilamide gel electrophoresis (PAGE) and then electrobloted onto PVDF membranes. Membranes were blocked by 5% nonfat milk and then sequentially incubated with the primary antibodies [phospho-TrkA, Tyr490 (Cell Signaling) or phospho-TrkB, Tyr515 (NovusBiological)] 1:1000 over-night and the secondary antibodies 1:2000, for 1 h at room temperature. Blots were processed for visualization by chemiluminescence system (Amersham) and exposed to Kodak film to visualize the fluorographic image.

TrkB = molecular target: T2, TrkB (Rattus norvegicus, UniProt Q63604); test: as above; assay type: cell-based; conditions: G79 100 ng/ml; 5-15-30-60 min
T2 construct: endogenous in cells; host or cells: PC12
T2 sequence (Q63604 32-821): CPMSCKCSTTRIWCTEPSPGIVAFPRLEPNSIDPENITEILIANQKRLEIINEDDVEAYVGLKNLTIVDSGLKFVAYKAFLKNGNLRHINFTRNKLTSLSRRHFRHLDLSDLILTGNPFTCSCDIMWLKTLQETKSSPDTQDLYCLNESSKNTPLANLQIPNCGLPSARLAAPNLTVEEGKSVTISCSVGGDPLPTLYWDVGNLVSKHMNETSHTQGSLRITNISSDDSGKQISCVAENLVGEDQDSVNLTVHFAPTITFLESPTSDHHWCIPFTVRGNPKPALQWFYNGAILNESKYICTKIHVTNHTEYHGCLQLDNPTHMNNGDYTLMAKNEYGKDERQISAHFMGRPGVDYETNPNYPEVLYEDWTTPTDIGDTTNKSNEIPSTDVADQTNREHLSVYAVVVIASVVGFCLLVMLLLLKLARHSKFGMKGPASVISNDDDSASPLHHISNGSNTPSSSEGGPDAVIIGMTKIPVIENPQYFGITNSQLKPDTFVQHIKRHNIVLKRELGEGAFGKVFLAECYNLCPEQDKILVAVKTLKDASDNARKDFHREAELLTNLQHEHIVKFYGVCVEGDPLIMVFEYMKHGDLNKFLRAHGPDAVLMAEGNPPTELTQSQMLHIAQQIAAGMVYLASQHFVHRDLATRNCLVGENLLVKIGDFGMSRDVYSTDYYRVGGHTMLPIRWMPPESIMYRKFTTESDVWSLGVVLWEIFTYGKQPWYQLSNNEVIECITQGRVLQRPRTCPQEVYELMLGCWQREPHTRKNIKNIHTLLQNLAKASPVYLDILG
Description: as §1

CC(C)CN(CC(=O)N(CCCN1CCCC1=O)CC(N)=O)C(=O)CNCCc1ccccc1F [Compound G79, [N-(2-(2′-Fluorophenyl)ethyl)glycyl]-[N-(2-methylpropyl)glycyl]-N-[3-(2′-oxopyrrolidinyl)propyl]glycinamide]
competition with BDNF for binding (MCF of G79-FITC) [1]: competes with BDNF to one of its receptors | protection of retinal ganglion cells (number of RGC vs glaucoma-placebo) ([2]; first experiment, eye drops, NGF 200, G79 200 and 400 μg/ml): significant protection of the ganglion cells | protection of RGCs by the combination treatment ([2]; second experiment, G79 200 μg/ml in combination with Timolol): did not exert additive effect in protecting RGCs | TrkA phosphorilation (phospho-TrkA, Tyr490) (TrkA): phosphorilated already after 5 min | TrkB phosphorilation (phospho-TrkB, Tyr515) (TrkB): phosphorilated already after 5 min
